Data as given in publication PMC3034772 (Pharmaceutical research, 2010).
“And” between values parts separate entries of the source, which are not always exact repeats. Identical values can stand only once. Like-named read-outs stand apart in the source and are kept apart here.

Columns and labels:
[1] = Charge class Q, dominant calculated charge state at pH 7.4; assay type: physicochemical
[2] = In combo PAMPA-BBB model, calculated log Po in situ
[3] = PAMPA; for Pm^7.4: pH 7.4
[4] = dominant calculated concentration fraction of the drug in a charge state
[5] = difference observed minus calculated, external set, no efflux inhibition

| Molecule | Q (charge class) [1, 4] | log PABL [3] | log Po [3] | log Ppara [3] | Pm^7.4 [3] | further results |
| --- | --- | --- | --- | --- | --- | --- |
| [D-Pen^2,5]-Enkephalin [DPDPE] |  |  |  |  |  | Q (charge class) [1]: ± |
| COc1cc([C@@H]2c3cc4c(cc3[C@@H](O[C@@H]3O[C@@H]5CO[C@@H](C)O[C@H]5[C@H](O)[C@H]3O)[C@H]3COC(=O)[C@H]23)OCO4)cc(OC)c1O [Etoposide] | 0 | −4.62 | −6.17 | −6.85 | 0.6 | obs–calc (log Po^in situ) ([2]; efflux inhibition mdr1a(−/−)): 0.1; obs–calc (log Po^in situ) ([2]; no efflux inhibition): −0.1 |
| CN1CCN(C2=Nc3cc(Cl)ccc3Nc3ccccc32)CC1 [Clozapine] | + | −3.37 | −2.58 | −5.74 | 632 | obs–calc (log Po^in situ) ([2]; efflux inhibition mdr1a(−/−)): −0.5 |
| CN(C)CCCN1c2ccccc2Sc2ccc(Cl)cc21 [Chlorpromazine] | + | −3.10 | −1.46 | −5.96 | 496 | obs–calc (log Po^in situ) ([2]; efflux inhibition mdr1a(−/−)): 0.2; obs–calc (log Po^in situ) ([2]; no efflux inhibition): 0.0 and 0.2 |
| CCN(CC)CCNC(=O)c1cc(Cl)c(N)cc1OC [Metoclopramide] | + |  |  |  | 380 |  |
| CC(NC(C)(C)C)C(=O)c1cccc(Cl)c1 (stereo not shown) [Bupropion] | + |  |  |  | 101 | obs–calc (log Po^in situ) ([2]; no efflux inhibition): 0.9 |
| COc1ccc2c(c1)c(CC(=O)O)c(C)n2C(=O)c1ccc(Cl)cc1 [Indomethacin] | − | −2.67 | −2.67 | −5.68 | 3 |  |
| CN(C)CCC=C1c2ccccc2CCc2ccccc21 [Amitriptyline] | + |  | −1.27 | −6.38 | 435 | obs–calc (log Po^in situ) ([2]; efflux inhibition mdr1a(−/−)): 0.1; obs–calc (log Po^in situ) ([2]; no efflux inhibition): −0.3 and −0.2 |
| C=C[C@H]1C[N@@]2CC[C@H]1C[C@H]2[C@H](O)c1ccnc2ccc(OC)cc12 [Quinine] | + |  |  |  |  |  |
| C[C@]12C[C@H](O)[C@H]3[C@@H](CCC4=CC(=O)CC[C@@]43C)[C@@H]1CC[C@@H]2C(=O)CO [Corticosterone] | 0 |  |  |  |  |  |
| C[C@H]1O[C@@H](O[C@H]2[C@@H](O)C[C@H](O[C@H]3[C@@H](O)C[C@H](O[C@H]4CC[C@@]5(C)[C@H](CC[C@@H]6[C@@H]5C[C@@H](O)[C@]5(C)[C@@H](C7=CC(=O)OC7)CC[C@]65O)C4)O[C@@H]3C)O[C@@H]2C)C[C@H](O)[C@@H]1O [Digoxin] |  |  |  |  |  | Q (charge class) [1]: 0 |
| OCCN(CCO)c1nc(N2CCCCC2)c2nc(N(CCO)CCO)nc(N3CCCCC3)c2n1 [Dipyridamole] | 0 |  |  |  |  |  |
| COc1cc2c(c(OC)c1OC)-c1ccc(OC)c(=O)cc1[C@@H](NC(C)=O)CC2 [Colchicine] |  |  |  |  |  | Q (charge class) [1]: 0 |
| CC(C)NCC(O)COc1cccc2ccccc12 (stereo not shown) [Propranolol] | + |  |  |  | 87 |  |
| CNCCCC12CCC(c3ccccc31)c1ccccc12 [Maprotiline] | + | −3.21 | −0.56 | −5.51 | 311 | obs–calc (log Po^in situ) ([2]; no efflux inhibition): 0.2 |
| Cc1cc(=O)n(-c2ccccc2)n1C [Antipyrine] |  | −4.46 | −6.14 | −6.86 |  | Q (charge class) [1]: 0 |
| O=C(O)COCCN1CCN(C(c2ccccc2)c2ccc(Cl)cc2)CC1 (stereo not shown) [Cetirizine] | ± |  |  |  |  |  |
| CC(C)(C(=O)O)c1ccc(C(O)CCCN2CCC(C(O)(c3ccccc3)c3ccccc3)CC2)cc1 (stereo not shown) [Fexofenadine] | ± |  |  |  |  |  |
| NC(=O)N1c2ccccc2C=Cc2ccccc21 [Carbamazepine] | 0 | −3.25 |  | −6.09 | 29 | obs–calc (log Po^in situ) ([2]; efflux inhibition mdr1a(−/−)): 0.6 |
| Cn1c(=O)c2c(ncn2C)n(C)c1=O [Caffeine] | 0 |  |  |  | 1 |  |

| Molecule | Q (charge class) [1, 4] | log PABL [3] | log Po [3] | log Ppara [3] | Pm^7.4 [3] | further results |
| --- | --- | --- | --- | --- | --- | --- |
| O=C1NC(=O)C(c2ccccc2)(c2ccccc2)N1 [Phenytoin] | 0 | −4.51 | −4.34 | −6.93 | 41 | obs–calc (log Po^in situ) ([2]; efflux inhibition mdr1a(−/−)): −0.3; obs–calc (log Po^in situ) ([2]; no efflux inhibition): −0.4 and −0.3 and −0.2 |
| CN1CC[C@]23c4c5ccc(O)c4O[C@H]2[C@@H](O)C=C[C@H]3[C@H]1C5 [Morphine] |  |  |  |  |  | Q (charge class) [1]: + |
| COc1ccc([C@@H]2Sc3ccccc3N(CCN(C)C)C(=O)[C@@H]2OC(C)=O)cc1 [Diltiazem] | + |  |  |  |  |  |
| CC[C@H](C)C(=O)O[C@H]1C[C@@H](C)C=C2C=C[C@H](C)[C@H](CC[C@@H](O)C[C@@H](O)CC(=O)O)[C@H]21 [Lovastatin Acid] | − |  |  |  |  |  |
| CC(C)Cc1ccc(C(C)C(=O)O)cc1 (stereo not shown) [Ibuprofen] | − |  |  |  |  |  |
| Cn1cnc2c1c(=O)[nH]c(=O)n2C [Theobromine] | 0 | −4.45 | −8.00 | −6.94 | 0.01 | obs–calc (log Po^in situ) [2, 5]: 1.1 |
| COc1ccc2cc([C@H](C)C(=O)O)ccc2c1 [Naproxen] | − |  |  |  |  |  |
| Cn1c(=O)c2[nH]cnc2n(C)c1=O [Theophylline] |  |  |  |  |  | Q (charge class) [1]: 0 |
| Cc1nc2n(c(=O)c1CCN1CCC(c3noc4cc(F)ccc34)CC1)CCCC2 [Risperidone] |  |  |  |  |  | Q (charge class) [1]: +; obs–calc (log Po^in situ) [2]: 0.8 |
| CC(=O)O[C@H]1C(=O)[C@@]2(C)[C@H]([C@H](OC(=O)c3ccccc3)[C@]3(O)C[C@H](OC(=O)[C@H](O)[C@@H](NC(=O)c4ccccc4)c4ccccc4)C(C)=C1C3(C)C)[C@]1(OC(C)=O)CO[C@@H]1C[C@@H]2O [Paclitaxel] | 0 |  |  |  |  | obs–calc (log Po^in situ) [2, 5]: −1.9 |
| C[C@]12CCC(=O)C=C1CC[C@@H]1[C@@H]2[C@@H](O)C[C@@]2(C)[C@H]1CC[C@]2(O)C(=O)CO [Hydrocortisone] | 0 |  |  |  |  |  |
| OCCN1CCN(CCCN2c3ccccc3Sc3ccc(Cl)cc32)CC1 [Perphenazine] | + | −3.42 | −1.66 | −5.64 | 1612 | obs–calc (log Po^in situ) [2, 5]: −0.9 |
| CC(=O)[C@H]1CC[C@H]2[C@@H]3CCC4=CC(=O)CC[C@]4(C)[C@H]3CC[C@]12C [Progesterone] | 0 | −3.25 | −3.58 | −6.20 | 263 | obs–calc (log Po^in situ) [2, 5]: −0.6 |
| CN(C)CCCC1(c2ccc(F)cc2)OCc2cc(C#N)ccc21 (stereo not shown) [Citalopram] | + |  |  |  | 99 |  |
| CN1C(=O)CN=C(c2ccccc2)c2cc(Cl)ccc21 [Diazepam] |  |  |  |  |  | Q (charge class) [1]: 0 |
| CCN(CC)CC(=O)Nc1c(C)cccc1C [Lidocaine] | + |  |  |  |  |  |
| O=C(CCCN1CCC(O)(c2ccc(Cl)cc2)CC1)c1ccc(F)cc1 [Haloperidol] | + | −3.38 | −2.06 | −4.68 | 464 | obs–calc (log Po^in situ) ([2]; no efflux inhibition): −0.3 |
| C[C@]12CC[C@H]3[C@@H](CCC4=CC(=O)CC[C@@]43C)[C@@H]1CC[C@@H]2O [Testosterone] |  |  |  |  |  | Q (charge class) [1]: 0 |
| CN(C)CCOC(c1ccccc1)c1ccccc1 [Diphenhydramine] | + |  |  |  |  |  |
| CCCCNC(=O)NS(=O)(=O)c1ccc(C)cc1 [Tolbutamide] | − |  |  |  |  |  |
